In patent US6248738A, “Isoquinolines as urokinase inhibitors” (Pfizer Inc., priority 1997, dated 2001):

What was measured:
human urokinase = target: T1, human urokinase (Homo sapiens, UniProt P00749); assay: Inhibition of human urokinase (HMWT human urokinase, substrate S-2444); type: biochemical; conditions: S-2444 substrate, read-out: Ki uPA
T1 construct: the urokinase used was HMWT Human Urokinase (Calbiochem 672081); purchased Calbiochem 672081

human plasmin = human plasmin (Homo sapiens, UniProt P00747); assay: Inhibition of human plasmin (substrate Chromozym-PL); type: biochemical; conditions: selectivity for uPA over human plasmin
human tPA = human tPA (Homo sapiens, UniProt P00750); assay: Inhibition of human tPA (substrate S-2288, tPA stimulator); type: biochemical; conditions: selectivity for uPA over human tPA
tumour metastasis = conditions: literature; cited from earlier work
[1] = test system: angiogenesis/capillary network formation; conditions: literature; cited from earlier work

Sequence of human tPA (P00750 33-562): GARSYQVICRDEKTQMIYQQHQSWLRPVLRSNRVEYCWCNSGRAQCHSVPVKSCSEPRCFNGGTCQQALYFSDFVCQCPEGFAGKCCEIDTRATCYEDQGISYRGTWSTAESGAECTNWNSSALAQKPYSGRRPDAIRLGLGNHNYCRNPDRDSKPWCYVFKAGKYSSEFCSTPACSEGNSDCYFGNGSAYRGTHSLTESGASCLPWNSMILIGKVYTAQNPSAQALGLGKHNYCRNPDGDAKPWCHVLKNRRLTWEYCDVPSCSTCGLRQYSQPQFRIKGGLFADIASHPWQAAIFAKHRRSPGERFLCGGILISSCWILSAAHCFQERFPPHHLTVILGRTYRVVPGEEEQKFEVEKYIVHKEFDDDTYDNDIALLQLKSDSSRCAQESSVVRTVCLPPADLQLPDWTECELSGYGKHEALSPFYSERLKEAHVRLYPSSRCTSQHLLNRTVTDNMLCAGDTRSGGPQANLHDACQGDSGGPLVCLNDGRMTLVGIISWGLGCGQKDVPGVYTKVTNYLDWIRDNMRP
Sequence of human plasmin (P00747 97-810): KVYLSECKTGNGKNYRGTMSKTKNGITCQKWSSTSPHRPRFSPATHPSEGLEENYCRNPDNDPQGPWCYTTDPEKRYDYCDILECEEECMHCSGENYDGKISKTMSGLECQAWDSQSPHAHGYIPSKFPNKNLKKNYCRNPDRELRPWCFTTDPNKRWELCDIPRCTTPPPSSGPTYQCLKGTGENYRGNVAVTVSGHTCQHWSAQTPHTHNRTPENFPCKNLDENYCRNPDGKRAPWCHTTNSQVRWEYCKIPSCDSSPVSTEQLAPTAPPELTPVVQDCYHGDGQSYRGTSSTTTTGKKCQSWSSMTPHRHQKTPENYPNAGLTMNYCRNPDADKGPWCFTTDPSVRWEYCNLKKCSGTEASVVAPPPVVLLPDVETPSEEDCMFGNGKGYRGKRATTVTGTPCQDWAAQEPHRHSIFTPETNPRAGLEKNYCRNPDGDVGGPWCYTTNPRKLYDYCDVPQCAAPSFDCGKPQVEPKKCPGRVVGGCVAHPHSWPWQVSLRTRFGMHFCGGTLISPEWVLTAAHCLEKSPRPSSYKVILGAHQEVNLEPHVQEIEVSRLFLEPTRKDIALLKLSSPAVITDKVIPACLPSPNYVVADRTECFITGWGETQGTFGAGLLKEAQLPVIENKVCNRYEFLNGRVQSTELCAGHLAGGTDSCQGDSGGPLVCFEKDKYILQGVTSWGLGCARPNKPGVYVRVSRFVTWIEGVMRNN

Ki (human urokinase) [nM] | vs. plasmin* (selectivity figures) (human plasmin) | vs. tPA* (selectivity figures) (human tPA) | SMILES | inhibition of tumour metastasis/invasion in vivo (tumour metastasis) | inhibition of angiogenesis/capillary network formation in vitro [1]
400 | 68 | 88 | NC(N)=Nc1nccc2ccc(/C=C/c3ccccc3)cc12 [Example 19] |  | 
 |  |  | N=C(N)NC(=O)c1nc(Cl)c(N)nc1N [Amiloride] | inhibit tumour metastasis in vivo | angiogenesis/capillary network formation in vitro
249 | 204 | 380 | NC(N)=Nc1nccc2ccc(Br)cc12 [Example 15] |  | 
